The source of these data is PubChem BioAssay (NCI).

Among the test systems are 786-0 renal; A549 NSCLC; ACHN renal; BT-549 breast; HCC-2998 colon; MDA-MB-435; OVCAR-3 ovarian; SK-MEL-2 melanoma; SW-620 colon; TK-10 renal.
Test in all cases: NCI-60 cell line screen, 48 h

Structures are written as SMILES.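 Step 1: Grow cells in 96-well plates. Step 2: Expose to compound for 48 hours at 5 concentrations. Step 3: Interpolate endpoints linearly; if unreached, use highest concentration. TGI marks complete inhibition of growth.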

Consider `CN(C)/N=N/c1nc2c(c(=O)n(C)c(=O)n2C)n1CC(O)CO` (stereo not drawn), for which the TGI in the experiment on 786-0 renal, with A549 NSCLC, with ACHN renal, with BT-549 breast, with HCC-2998 colon and in the experiment with MDA-MB-435 was above 100 µM each time. Further, the TGI with OVCAR-3 ovarian, with SK-MEL-2 melanoma, in the experiment on SW-620 colon and in the experiment on TK-10 renal was above 100 µM throughout.
On to `O=C(c1cccs1)N1CCN(C(=O)c2cccs2)C1=S`, for which the TGI in the experiment with 786-0 renal came to 12.4 µM; in the experiment with A549 NSCLC it was 19.8 µM; with ACHN renal, 20.5 µM; in the experiment on BT-549 breast, 14.9 µM; in the experiment with HCC-2998 colon it was 22 µM; in the experiment on MDA-MB-435, 10.2 µM. In addition, the TGI was determined as 10.7 µM with OVCAR-3 ovarian, 28.3 µM in the experiment on SK-MEL-2 melanoma, 24.6 µM in the experiment on SW-620 colon and 19 µM in the experiment on TK-10 renal.
Take `O=C1c2c(O)cccc2-c2nn(CCNCCO)c3ccc(NCCNCCO)c1c23`: the TGI came to 0.895 µM in the experiment with 786-0 renal; 0.482 µM with A549 NSCLC; 0.992 µM with ACHN renal; 1.42 µM in the experiment with BT-549 breast; 1 µM in the experiment with HCC-2998 colon; 1.87 µM with MDA-MB-435. For the same compound, the TGI in the experiment with OVCAR-3 ovarian stood at 5.86 µM; in the experiment with SK-MEL-2 melanoma, 1.38 µM; in the experiment with SW-620 colon it was 7.09 µM; in the experiment on TK-10 renal, 7.08 µM.
On to `CCN(CC)C(=S)SS(=O)(=O)c1cccc(N)c1`, for which the TGI in the experiment with 786-0 renal, in the experiment on A549 NSCLC, in the experiment with ACHN renal, in the experiment on BT-549 breast, in the experiment on HCC-2998 colon and in the experiment on MDA-MB-435 was above 100 µM each time. Besides, the TGI with OVCAR-3 ovarian, in the experiment on SK-MEL-2 melanoma, in the experiment with SW-620 colon and in the experiment with TK-10 renal was above 100 µM in each case.
Consider `CC(C)(C)CC(C)(C)c1cc(O)c(O)c(CN2CCCCC2)c1`, for which the TGI with 786-0 renal was found to be 26.7 µM; in the experiment with A549 NSCLC, 30.8 µM; with ACHN renal, 25.6 µM; in the experiment on BT-549 breast it was 28.4 µM; in the experiment on HCC-2998 colon it was 22.4 µM; in the experiment with MDA-MB-435 it was 37.1 µM. The values for the TGI in the experiment on OVCAR-3 ovarian, in the experiment on SW-620 colon and in the experiment on TK-10 renal were 28 µM, 28 µM and 29.6 µM, respectively.
Consider `N#Cc1cc2c(n(C3OC(CO)C(O)C(O)C3O)c1=S)CCCCCC2` (stereo not drawn), for which the TGI with 786-0 renal, in the experiment on A549 NSCLC, in the experiment with ACHN renal, in the experiment on BT-549 breast, in the experiment on HCC-2998 colon and in the experiment on MDA-MB-435 was above 100 µM in each case. Further, the TGI in the experiment on OVCAR-3 ovarian, in the experiment on SK-MEL-2 melanoma, in the experiment with SW-620 colon and with TK-10 renal was above 100 µM in each case.
As for `Cc1ccc(S(=O)(=O)Nn2c(O)c(C#N)c(-c3ccc(Cl)cc3)c(C#N)c2=O)cc1`, the TGI in the experiment with 786-0 renal, in the experiment on A549 NSCLC, in the experiment on ACHN renal, with BT-549 breast, with HCC-2998 colon and in the experiment on MDA-MB-435 was above 100 µM throughout. The TGI with SK-MEL-2 melanoma, in the experiment with SW-620 colon and in the experiment with TK-10 renal was above 100 µM throughout.
For the compound `COc1cccc(N=N/C(=N\NC(=O)c2ccc(C)cc2)c2ccc(N(CCC#N)CCC#N)cc2C)c1`, the TGI in the experiment on 786-0 renal, in the experiment with A549 NSCLC, with ACHN renal, in the experiment on BT-549 breast, with HCC-2998 colon and in the experiment with MDA-MB-435 was above 100 µM in each case. Further, the TGI in the experiment with OVCAR-3 ovarian, in the experiment on SK-MEL-2 melanoma, with SW-620 colon and in the experiment with TK-10 renal was above 100 µM throughout.
As for `C=CCOn1c(C=C)nc2ccc(C)cc21`, the TGI worked out at 32.9 µM in the experiment on 786-0 renal; 68.5 µM in the experiment on A549 NSCLC; 59.6 µM in the experiment with ACHN renal; 41.2 µM with BT-549 breast; 33 µM in the experiment with HCC-2998 colon; 44.5 µM in the experiment on MDA-MB-435. Further, the TGI in the experiment on OVCAR-3 ovarian was found to be 40.9 µM; with SK-MEL-2 melanoma, 30.6 µM; with SW-620 colon, 40.8 µM; in the experiment with TK-10 renal, 32.4 µM.
As to `C/C(=N\NC(=S)N(C)C)c1cccnn1`, the TGI was above 100 µM with 786-0 renal; 0.474 µM in the experiment on ACHN renal; above 100 µM in the experiment with BT-549 breast; above 100 µM in the experiment on HCC-2998 colon; above 100 µM with MDA-MB-435; above 100 µM with OVCAR-3 ovarian. The TGI in the experiment on SK-MEL-2 melanoma, in the experiment with SW-620 colon and in the experiment with TK-10 renal was above 100 µM throughout.
Take `C=CCC1C(O[Si](C)(C)C(C)(C)C)C(CO[Si](C)(C)C(C)(C)C)OC1n1ccc(=O)[nH]c1=O` (stereo not drawn): the TGI with 786-0 renal was 2.44 µM; in the experiment on A549 NSCLC, 2.91 µM; in the experiment on BT-549 breast, 3.42 µM; in the experiment with HCC-2998 colon, 3.27 µM; in the experiment with MDA-MB-435, 4.33 µM; in the experiment with OVCAR-3 ovarian, 3.34 µM. Further, the figures for the TGI in the experiment with SK-MEL-2 melanoma and with SW-620 colon were 4.65 µM and 2.84 µM, respectively.
In the case of `CN1C(=O)C(O)C[C@@H]1c1ccccc1` (stereo partly drawn), the TGI in the experiment with 786-0 renal, in the experiment with A549 NSCLC, in the experiment with ACHN renal, with BT-549 breast, in the experiment with HCC-2998 colon and in the experiment with MDA-MB-435 was above 100 µM each time. In addition, the TGI with OVCAR-3 ovarian, in the experiment on SK-MEL-2 melanoma, in the experiment with SW-620 colon and in the experiment with TK-10 renal was above 100 µM throughout.
`CC(=O)Nc1ccc(OC/C(N)=N/NC(=O)c2ccncc2)cc1`: the TGI in the experiment with 786-0 renal, in the experiment on A549 NSCLC, in the experiment with ACHN renal, with BT-549 breast, in the experiment on HCC-2998 colon and in the experiment on MDA-MB-435 was above 100 µM each time. Besides, the TGI in the experiment on OVCAR-3 ovarian, in the experiment with SK-MEL-2 melanoma, in the experiment on SW-620 colon and in the experiment with TK-10 renal was above 100 µM each time.
Turning to `CCCSc1ccc2[nH]c(N3C(=O)/C(=C/c4ccccc4)N=C3c3ccccc3)cc2c1`, the TGI is above 50 µM with 786-0 renal; above 50 µM in the experiment on A549 NSCLC; above 50 µM with ACHN renal; above 50 µM with BT-549 breast; 44.6 µM in the experiment on HCC-2998 colon; 21.3 µM in the experiment with MDA-MB-435. The TGI in the experiment on SK-MEL-2 melanoma was 18 µM; with SW-620 colon, above 50 µM.
